{"source": "patent US11472798B2", "about": "(Mission Therapeutics Limited, priority 2014, dated 2022)", "data": [{"molecular_target": "T1, UCHL1 (Homo sapiens, UniProt P09936)", "T1 construct": "made in house; host or cells: HEK293T", "T1 sequence (P09936 1-223)": "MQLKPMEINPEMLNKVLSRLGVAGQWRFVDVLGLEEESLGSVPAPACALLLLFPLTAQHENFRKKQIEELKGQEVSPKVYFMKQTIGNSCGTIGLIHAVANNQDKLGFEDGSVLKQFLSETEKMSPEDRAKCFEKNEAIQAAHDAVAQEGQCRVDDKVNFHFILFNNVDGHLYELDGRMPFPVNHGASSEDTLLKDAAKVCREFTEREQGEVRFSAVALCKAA", "test": "UCHL1 biochemical IC50 assay (fluorescence polarisation)", "conditions": "30 min enzyme/compound pre-incubation at room temp, read after 2 hr incubation, read-out: Activity range (UCHL1 biochemical IC50 assay)", "procedure,_shortened": "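Fluorescence polarisation (ex 540/em 590 nm) of 50 nM TAMRA-labelled ubiquitin–peptide isopeptide substrate was read at time zero and after 2 h at room temperature. Compounds (100–0.03 μM final, in duplicate) were given 30 min preincubation with N-FLAG UCHL1 from HEK293T cells in pH 7.5 Tris buffer.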", "units": {"IC50": "nM"}, "values": [{"molecule": "N#CN1CC[C@H](C(=O)Nc2cc3cc(-c4cn[nH]c4C(F)(F)F)ccc3cn2)C1", "note": "[Example 289, (S)-1-cyano-N-(6-(5-(trifluoromethyl)-1H-pyrazol-4-yl)isoquinolin-3-yl)pyrrolidine-3-carboxamide]", "IC50": "< 1000"}, {"molecule": "Cc1oncc1-c1cccc(-c2ccnc(NC(=O)[C@H]3CCN(C#N)C3)c2)c1", "note": "[Example 290, (S)-1-cyano-N-(4-(3-(5-methylisoxazol-4-yl)phenyl)pyridin-2-yl)pyrrolidine-3-carboxamide]", "IC50": "< 1000"}, {"molecule": "N#CN1CC[C@H](C(=O)Nc2cc(-c3cn[nH]c3)ccn2)C1", "note": "[Example 291, (S)-N-(4-(1H-pyrazol-4-yl)pyridin-2-yl)-1-cyanopyrrolidine-3-carboxamide]", "IC50": "1000 to 10000"}, {"molecule": "N#CN1CC[C@H](C(=O)Nc2nc3ccc(-c4cn[nH]c4)cc3s2)C1", "note": "[Example 292, (S)-N-(6-(1H-pyrazol-4-yl)benzo[d]thiazol-2-yl)-1-cyanopyrrolidine-3-carboxamide]", "IC50": "1000 to 10000"}, {"molecule": "N#CN1CC[C@H](C(=O)Nc2cn(-c3ccc(-c4cn[nH]c4)cc3)cn2)C1", "note": "[Example 294, (S)-N-(1-(4-(1H-pyrazol-4-yl)phenyl)-1H-imidazol-4-yl)-1-cyanopyrrolidine-3-carboxamide]", "IC50": "< 1000"}, {"molecule": "Cc1[nH]ncc1-c1ccnc(NC(=O)[C@H]2CCN(C#N)C2)c1", "note": "[Example 295, (S)-1-cyano-N-(4-(5-methyl-1H-pyrazol-4-yl)pyridin-2-yl)pyrrolidine-3-carboxamide]", "IC50": "1000 to 10000"}, {"molecule": "Cc1noc(C)c1-c1cc2sc(NC(=O)[C@H]3CCN(C#N)C3)nc2cn1", "note": "[Example 296, (S)-1-cyano-N-(6-(3,5-dimethylisoxazol-4-yl)thiazolo[4,5-c]pyridin-2-yl)pyrrolidine-3-carboxamide]", "IC50": "10000 to 30000"}, {"molecule": "Cc1oncc1-c1cc(-c2ccnc(NC(=O)[C@H]3CCN(C#N)C3)c2)ccn1", "note": "[Example 297, (S)-1-cyano-N-(2′-(5-methylisoxazol-4-yl)-[4-4′-bipyridin]-2-yl)pyrrolidine-3-carboxamide]", "IC50": "< 1000"}, {"molecule": "Cc1nn(C)c2ccc(-n3cnc(NC(=O)[C@H]4CCN(C#N)C4)c3)cc12", "note": "[Example 298, (S)-1-cyano-N-(1-(1,3-dimethyl-1H-indazol-5-yl)-1H-imidazol-4-yl)pyrrolidine-3-carboxamide]", "IC50": "< 1000"}, {"molecule": "Cc1n[nH]c2cc(-n3cnc(NC(=O)[C@H]4CCN(C#N)C4)c3)ccc12", "note": "[Example 299, (S)-1-cyano-N-(1-(3-methyl-1H-indazol-6-yl)-1H-imidazol-4-yl)pyrrolidine-3-carboxamide]", "IC50": "< 1000"}, {"molecule": "N#CN1CC[C@H](C(=O)Nc2cn(-c3ccc4[nH]ncc4c3)cn2)C1", "note": "[Example 300, (S)-N-(1-(1H-indazol-5-yl)-1H-imidazol-4-yl)-1-cyanopyrrolidine-3-carboxamide]", "IC50": "< 1000"}, {"molecule": "N#CN1CC[C@H](C(=O)Nc2cn(-c3ccc4cn[nH]c4c3)cn2)C1", "note": "[Example 301, (S)-N-(1-(1H-indazol-6-yl)-1H-imidazol-4-yl)-1-cyanopyrrolidine-3-carboxamide]", "IC50": "< 1000"}, {"molecule": "COc1cc(-n2cnc(NC(=O)[C@H]3CCN(C#N)C3)c2)ccc1F", "note": "[Example 302, (S)-1-cyano-N-(1-(4-fluoro-3-methoxyphenyl)-1H-imidazol-4-yl)pyrrolidine-3-carboxamide]", "IC50": "< 1000"}, {"molecule": "N#CN1CC[C@H](C(=O)Nc2cn(-c3cccc4[nH]ncc34)cn2)C1", "note": "[Example 303, (S)-N-(1-(1H-indazol-4-yl)-1H-imidazol-4-yl)-1-cyanopyrrolidine-3-carboxamide]", "IC50": "< 1000"}, {"molecule": "N#Cc1ccc(-n2cnc(NC(=O)[C@H]3CCN(C#N)C3)c2)cc1C1CC1", "note": "[Example 304, (S)-1-cyano-N-(1-(4-cyano-3-cyclopropylphenyl)-1H-imidazol-4-yl)pyrrolidine-3-carboxamide]", "IC50": "< 1000"}, {"molecule": "N#CN1CC[C@H](C(=O)Nc2cn(-c3ccnc4ccccc34)cn2)C1", "note": "[Example 305, (S)-1-cyano-N-(1-(quinolin-4-yl)-1H-imidazol-4-yl)pyrrolidine-3-carboxamide]", "IC50": "< 1000"}, {"molecule": "N#Cc1ccc(C2CC2)cc1-n1cnc(NC(=O)[C@H]2CCN(C#N)C2)c1", "note": "[Example 306, (S)-1-cyano-N-(1-(2-cyano-5-cyclopropylphenyl)-1H-imidazol-4-yl)pyrrolidine-3-carboxamide]", "IC50": "< 1000"}, {"molecule": "COc1cc(-n2cnc(NC(=O)[C@H]3CCN(C#N)C3)c2)ccc1C#N", "note": "[Example 307, (S)-1-cyano-N-(1-(4-cyano-3-methoxyphenyl)-1H-imidazol-4-yl)pyrrolidine-3-carboxamide]", "IC50": "< 1000"}, {"molecule": "Cc1cc(-n2cnc(NC(=O)[C@H]3CCN(C#N)C3)c2)ccc1C#N", "note": "[Example 308, (S)-1-cyano-N--(1-(4-cyano-3-methylphenyl)-1H-imidazol-4-yl)pyrrolidine-3-carboxamide]", "IC50": "< 1000"}, {"molecule": "N#Cc1ccc(-n2cnc(NC(=O)[C@H]3CCN(C#N)C3)c2)cc1C(F)(F)F", "note": "[Example 309, (S)-1-cyano-N-(1-(4-cyano-3-(trifluoromethyl)phenyl)-1H-imidazol-4-yl)pyrrolidine-3-carboxamide]", "IC50": "< 1000"}, {"molecule": "N#Cc1ccc(-n2cnc(NC(=O)[C@H]3CCN(C#N)C3)c2)cc1OC(F)(F)F", "note": "[Example 310, (S)-1-cyano-N-(1-(4-cyano-3-(trifluoromethoxy)phenyl)-1H-imidazol-4-yl)pyrrolidine-3-carboxamide]", "IC50": "< 1000"}, {"molecule": "(S)-1-cyano-N-(isoquinolin-yl)pyrrolidine-3-carboxamide [Example 58]", "IC50": "1000 to 10000"}]}]}
